Results on three molecules are retold here after US7232912B2, “Indazole compounds, pharmaceutical compositions, and methods for mediating or inhibiting cell proliferation” (Agouron Pharmaceuticals, Inc., priority 2000, dated 2007).

One assay deals with HCT 116 cell line. The assay is described as follows: Inhibition of Cell Growth (MTT tetrazolium salt assay). Format: cell-based. Particulars: Homo sapiens, HCT 116, MTT; for IC50: 50% inhibition of growth, read-out: HCT 116 IC50; for IC90: read-out: HCT 116 IC90. In a few lines: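 HCT 116 cells in McCoy's 5A were dosed 4 h after plating, in 0.5% (v/v) DMSO, then held 4–6 days at 37 °C, 5% CO2. MTT at 0.2 mg/mL final for 4 h; DMSO-solubilized formazan read at 540 nm. IC50 taken from the linear part of a semi-log plot versus DMSO-only controls.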
On the technique in general: Tetrazolium dyes change colour on reduction, which living cells bring about.

In a further assay the target is T1, LCK tyrosine kinase (Homo sapiens, UniProt P06239, C224D/P223M).
T1 construct: starting from amino acid 223 to the end of the protein at amino acid 509; made in house; host or cells: insect cells
The assay is described as follows: Inhibition of phosphorylated LCK tyrosine kinase activity. Format: biochemical. Particulars: read-out: LCK % Inhib. at 1 μM. The procedure:
Inhibition of Phosphorylated FGF Receptor and LCK Tyrosine Kinase Activity
Cloning, expression and purification of the cytosolic domain of FGFR1 tyrosine kinase (amino acids 456–766) containing three amino acid substitutions (L457V, C488A, and C584S) were conducted as previously described (Mohammadi, M., Schlessinger, J., & Hubbard, S. R. (1996) Cell 86, 577–587). This domain was expressed in Sf9 insect cells using a baculovirus expression vector, and protein was purified using conventional techniques. The LCK tyrosine kinase was expressed in insect cells as an N-terminal deletion starting from amino acid 223 to the end of the protein at amino acid 509. The N-terminus of the protein also had two amino acid substitutions, P223M and C 224D. Kinases were purified using conventional chromatographic methods.
Tyrosine kinase activity was measured using a coupled, continuous spectrophotometric assay, in which production of phosphorylated poly(Glu, Tyr; 4:1) substrate and ADP is coupled to the pyruvate kinase-catalyzed transfer of a phosphate from phosphoenolpyruvate to ADP, with generation of pyruvate and regeneration of ATP. Pyruvate production is in turn coupled to the lactate dehydrogenase-catalyzed reduction of pyruvate to form lactate, with concomitant conversion of NADH to NAD+. Loss of NADH is monitored by measuring absorbance at 340 nm (see e.g., Technikova-Dobrova et al., “Spectrophotometric determination of functional characteristics of protein kinases with coupled enzymatic assay,” FEBS Letters, vol. 292 (1991), pp. 69–72). Enzyme activity was measured in the presence of 200 mM HEPES (pH 7.5), 2 mM phosphoenolpyruvate, 0.3 mM NADH, 20 mM MgCl2, 100 μM ATP, 5 mM DTT, 5.1 or 25 mM poly (Glu,Tyr) 4:1 for P-FGF or P-LCK assays, respectively, and 15 units/mL each of pyruvate kinase and lactate dehydrogenase. Phosphorylated FGF receptor kinase was present at 100 nM and phosphorylated LCK kinase was present at 50 nM. Assays were performed under initial rate conditions at 37° C., and rates were corrected for any background rate measured in the absence of enzyme. Percent inhibition was calculated relative to control enzyme assayed in the presence of 2% (v/v) DMSO.

In the next assay the target is T2, VEGF-R2 (Homo sapiens, UniProt P35968, DEL940-989/E990V).
T2 construct: VEGF-R2Δ50 contains residues 806–939 and 990–1171; made in house; host or cells: baculovirus/insect cells
As to the kind of experiment: VEGF-R2 Assay (coupled spectrophotometric FLVK-P / ELISA). Format: biochemical. The conditions noted are these: read-out: VEGF % Inhib. at 1 μM. An excerpt:
VEGF-R2 Construct for Assay
This construct determines the ability of a test compound to inhibit tyrosine kinase activity. A construct (VEGF-R2Δ50) of the cytosolic domain of human vascular endothelial growth factor receptor 2 (VEGF-R2) lacking the 50 central residues of the 68 residues of the kinase insert domain was expressed in a baculovirus/insect cell system. Of the 1356 residues of full-length VEGF-R2, VEGF-R2Δ50 contains residues 806–939 and 990–1171, and also one point mutation (E990V) within the kinase insert domain relative to wild-type VEGF-R2. […] See Parast et al., Biochemistry, 37,16788–16801 (1998).
Coupled Spectrophotometric (FLVK-P) Assay
The production of ADP from ATP that accompanies phosphoryl transfer was coupled to oxidation of NADH using phosphoenolpyruvate (PEP) and a system having pyruvate kinase (PK) and lactic dehydrogenase (LDH). The oxidation of NADH was monitored by following the decrease of absorbance at 340 nm (e340=6.22 cm^1 mM^−1) using a Beckman DU 650 spectrophotometer. Assay conditions for phosphorylated VEGF-R2A50 (indicated as FLVK-P in the tables below) were the following: 1 mM PEP; 250 μM NADH; 50 units of LDH/mL; 20 units of PK/mL; 5 mM DTT; 5.1 mM poly(E4Y1); 1 mM ATP; and 25 mM MgCl2 in 200 mM Hepes, pH 7.5. Assay conditions for unphosphorylated VEGF-R2A50 (indicated as FLVK in the tables) were the following: 1 mM PEP; 250 μM NADH; 50 units of LDH/mL; 20 units of PK/mL; 5 mM DTT; 20 mM poly(E4Y1); 3 mM ATP; and 60 mM MgCl2 and 2 mM MnCl2 in 200 mM Hepes, pH 7.5. Assays were initiated with 5 to 40 nM of enzyme. Ki values were determined by measuring enzyme activity in the presence of varying concentrations of test compounds. The data were analyzed using Enzyme Kinetic and Kaleidagraph software.
Formation of phosphogastrin was monitored using biotinylated gastrin peptide (1–17) as substrate. Biotinylated phosphogastrin was immobilized using streptavidin coated 96-well microtiter plates followed by detection using anti-phosphotyrosine-antibody conjugated to horseradish peroxidase. The activity of horseradish peroxidase was monitored using 2,2′-azino-di-[3-ethylbenzathiazoline sulfonate(6)] diammonium salt (ABTS). Typical assay solutions contained: 2 μM biotinylated gastrin peptide; 5 mM DTT; 20 μM ATP; 26 mM MgCl2; and 2 mM MnCl2 in 200 mM Hepes, pH 7.5. The assay was initiated with 0.8 nM of phosphorylated VEGF-R2Δ50. Horseradish peroxidase activity was assayed using ABTS, 10 mM. The horseradish peroxidase reaction was quenched by addition of acid (H2SO4), followed by absorbance reading at 405 nm. Ki values were determined by measuring enzyme activity in the presence of varying concentrations of test compounds. The data were analyzed using Enzyme Kinetic and Kaleidagraph software.
(In general: In an ELISA, binding on a coated surface is turned into a signal by an enzyme label.)

T1 sequence (P06239 223-509 P223M/C224D): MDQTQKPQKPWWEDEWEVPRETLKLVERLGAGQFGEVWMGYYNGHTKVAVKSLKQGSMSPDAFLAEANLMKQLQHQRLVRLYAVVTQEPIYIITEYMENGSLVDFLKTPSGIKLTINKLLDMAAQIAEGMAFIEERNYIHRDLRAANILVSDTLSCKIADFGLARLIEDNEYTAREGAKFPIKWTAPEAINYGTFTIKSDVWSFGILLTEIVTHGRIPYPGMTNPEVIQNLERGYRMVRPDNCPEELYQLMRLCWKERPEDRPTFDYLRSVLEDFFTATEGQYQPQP
T2 sequence (P35968 with tags, fused parts or gaps DEL940-989/E990V limits assumed): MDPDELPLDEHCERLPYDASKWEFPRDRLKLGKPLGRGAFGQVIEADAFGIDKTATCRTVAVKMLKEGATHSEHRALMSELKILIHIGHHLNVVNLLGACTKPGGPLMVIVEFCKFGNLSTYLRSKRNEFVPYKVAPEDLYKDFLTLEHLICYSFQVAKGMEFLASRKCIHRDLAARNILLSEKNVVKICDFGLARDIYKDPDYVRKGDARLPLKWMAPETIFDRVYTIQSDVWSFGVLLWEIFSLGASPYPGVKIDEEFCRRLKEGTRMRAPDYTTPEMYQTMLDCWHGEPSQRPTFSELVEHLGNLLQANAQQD

As usually defined, the IC50 is the concentration at which inhibition is half-maximal. Broadly, the IC90 is the concentration needed for an effect of 90%. With `Cc1c(O)cccc1-c1ccc2[nH]nc(-c3nc4ccccc4[nH]3)c2c1` [10′, 3-[3-(1H-Benzoimidazol-2-yl)-1H-indazol-5-yl]-2-methyl-phenol], in the assay on HCT 116 cell line, the 50% inhibitory concentration (IC50) turned out to be 1.5 µM and the IC90 was determined as 3.8 µM. Further, the inhibition at 1 µM on LCK tyrosine kinase was 21%.

Regarding `Cc1c(O)cccc1-c1ccc2[nH]nc(/C=C/c3ccccc3)c2c1` [15′, 2-Methyl-3-[3-((E)-styryl)-1H-indazol-5-yl]-phenol], in the assay on HCT 116 cell line, the 50% inhibitory concentration (IC50) worked out at 1.2 µM and the concentration for an effect of 90% (IC90) was 2.5 µM. In addition, the inhibition at 1 µM on LCK tyrosine kinase came to 17%.

On to `Fc1ccccc1-c1ccc2[nH]nc(-c3nc4ccccc4[nH]3)c2c1` [Example 6, 3-(1H-Benzoimidazol-2-yl)-5-(2-fluorophenyl)-1H-Indazole], for which, in the assay on HCT 116 cell line, the IC50 was determined as 6 µM. Further, in the assay with HCT 116 cell line, the concentration for an effect of 90% (IC90) stood at 21 µM. Further, the inhibition at 1 µM was found to be 64% at VEGF-R2 and 11% at LCK tyrosine kinase.
